The values below come from ChEMBL document CHEMBL4725462, “Biotransformation: Impact and Application of Metabolism in Drug Discovery” (ACS Med Chem Lett, 2020).

The nature of assay [1]: Inhibition of IgE-dependent histamine release in normal human blood basophils. The format is functional, tissue-based. The conditions noted are these: Basophil.
The test system of the next assay is HMC-1.2. As to the kind of experiment: Induction of apoptosis in human HMC-1.2 cells by flow cytometry. Format: functional, cell-based.
A short description of another assay: cells. The format is functional, tissue-based. The conditions noted are these: Homo sapiens, Mast cell.

Active and inactive are the calls of the source. The rule behind the calls is not given here.

Description for cells: Growth inhibition of human neoplastic mast cells incubated for 24 to 48 hrs

As for `CN(C(=O)c1ccccc1)[C@@H]1C[C@H]2O[C@@](C)([C@@H]1O)n1c3ccccc3c3c4c(c5c6ccccc6n2c5c31)C(=O)NC4`, the IC50 – broadly, the concentration at which inhibition is half-maximal – in assay [1] was 0.01 µM; in “cells”, 0.05 µM. Besides, the result in the assay on HMC-1.2 was Active.
In assay [1], `CO[C@@H]1[C@H](N(C)C(=O)c2ccccc2)C[C@H]2O[C@]1(C)n1c3ccccc3c3c4c(c5c6ccccc6n2c5c31)C(=O)NC4O` (stereo partly specified) showed an IC50 of 0.01 µM. Further, in the assay with HMC-1.2, the result was inactive.
Regarding `CO[C@@H]1[C@H](N(C)C(=O)c2ccccc2)C[C@H]2O[C@]1(C)n1c3ccccc3c3c4c(c5c6ccccc6n2c5c31)C(=O)NC4`, the result with HMC-1.2 was Active.
